# Results from ChEMBL document CHEMBL5260825, “Chemical Constituents of Bryophytes: Structures and Biological Activity” (J Nat Prod, 2018).
# Tests used:
# RAW264.7 [1] = test: Inhibition of LPS-induced NO production in mouse RAW264.7 cells; type: functional, cell-based
# [2] = test system: Trichostrongylus colubriformis; test: Anthelmintic activity against third stage larvae of Trichostrongylus colubriformis by microscope based analysis; type: functional, organism-based
# P388 = test: Antiproliferative activity against mouse P388 cells assessed as cell growth inhibition; type: functional, cell-based
# U-251 = test: Antiproliferative activity against human U-251MG cells assessed as cell growth inhibition; type: functional; conditions: read-out: ED50 (the source's name)
# HL-60 = test: Antiproliferative activity against human HL-60 cells assessed as cell growth inhibition; type: functional, cell-based
# Candida albicans = test: Antifungal activity against Candida albicans assessed as inhibition of fungal growth by MTT assay; type: functional
# [3] = molecular target: T1, Polyunsaturated fatty acid 5-lipoxygenase (Homo sapiens) (UniProt P09917); test: Inhibition of ALOX5 (unknown origin) at 0.000001 M relative to control; conditions: dose 1 µM
# T1 sequence (whole entry): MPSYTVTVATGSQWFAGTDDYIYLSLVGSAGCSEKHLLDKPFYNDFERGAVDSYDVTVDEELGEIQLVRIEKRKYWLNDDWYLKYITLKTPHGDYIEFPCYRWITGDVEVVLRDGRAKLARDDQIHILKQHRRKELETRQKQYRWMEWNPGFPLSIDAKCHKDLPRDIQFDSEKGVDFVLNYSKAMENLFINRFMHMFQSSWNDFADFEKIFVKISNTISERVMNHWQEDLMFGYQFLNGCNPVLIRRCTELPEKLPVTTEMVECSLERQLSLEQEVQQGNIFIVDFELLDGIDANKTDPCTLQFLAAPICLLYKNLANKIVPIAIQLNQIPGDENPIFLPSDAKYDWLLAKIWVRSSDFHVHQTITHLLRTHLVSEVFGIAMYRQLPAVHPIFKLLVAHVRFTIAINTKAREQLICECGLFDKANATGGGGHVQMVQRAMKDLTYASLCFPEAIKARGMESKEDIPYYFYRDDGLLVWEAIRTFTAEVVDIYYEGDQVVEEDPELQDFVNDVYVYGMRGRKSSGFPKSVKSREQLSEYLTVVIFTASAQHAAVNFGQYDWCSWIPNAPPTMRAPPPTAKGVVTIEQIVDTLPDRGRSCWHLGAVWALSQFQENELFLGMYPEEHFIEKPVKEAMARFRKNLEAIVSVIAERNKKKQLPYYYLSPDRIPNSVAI
# KB = test: Antiproliferative activity against human KB cells assessed as cell growth inhibition; type: functional, cell-based
# Cyclooxygenase = Cyclooxygenase (Homo sapiens, UniProt P35354+P23219); test: Inhibition of COX (unknown origin); type: protein assay
# [4] = test system: Peritoneal macrophage cell; test: Inhibition of superoxide anion radical release in guinea pig peritoneal macrophages; type: functional, cell-based; conditions: Cavia porcellus
# Staphylococcus aureus = test: Antibacterial activity against Staphylococcus aureus assessed as inhibition of bacterial growth by agar diffusion method; type: functional
# DNA polymerase beta = DNA polymerase beta (Homo sapiens, UniProt P06746); test: Inhibition of DNA polymerase beta (unknown origin)
# RAW264.7 [5] = test: Inhibition of LPS-induced NO production in mouse RAW264.7 cells incubated for 24 hrs by Griess reagent based assay; type: functional, cell-based; conditions: RAW264.7, 24 h
smiles,measurement,setting,value
C[C@H]1C(O)(O)C[C@@]2(C)[C@@H](CC[C@@H]3O[C@@]32C)[C@]1(C)CCc1ccoc1,IC50,RAW264.7 [1],4.5 µM
COc1cc(/C=C\c2ccccc2)ccc1O,IC50,[2],70 µg/mL
C=C1C(=O)O[C@H]2C3=C(C)CCC[C@@]3(C)CC[C@H]12,IC50,P388,1.1 µg/mL
COc1cc(OC)c2c3c1-c1c(O)cccc1[C@@H]1Oc4ccccc4[C@@H](C[C@@H]2O)[C@@H]31,EC50,U-251,0.8 µg/mL
C=C1C(=O)O[C@H]2C/C(C)=C/CC[C@@]3(C)O[C@H]3C[C@H]12,IC50,HL-60,8.5 µM
Clc1ccc(COC(Cn2ccnc2)c2ccc(Cl)cc2Cl)c(Cl)c1 (stereo unspecified) [MICONAZOLE],MID,Candida albicans,0.01 µg
CC(C)=CCc1c(O)cc(CCc2ccccc2)cc1O,inhibition,[3],4%
CC(C)=CCC[C@@]1(C)C=Cc2c(CCc3ccccc3)cc(O)cc2O1,IC50,RAW264.7 [1],4.5 µM
COC1Cc2cccc(c2)Oc2c(O)cccc2CCc2ccc(cc2)Oc2cc1cc(O)c2O (stereo unspecified) [MARCHANTIN E],MID,Candida albicans,2.5 µg/mL
same,IC50,KB,7.6 µM
same,inhibition,[3],4%
same,IC50,Cyclooxygenase,58 µM
CC1=CCc2c(O)cc(CCc3ccccc3O)cc2OC1,IC50,RAW264.7 [1],4.5 µM
C=C1C(=O)C[C@H]2[C@H]3[C@@H]1[C@]2(COC(C)=O)CCCC3(C)C,IC50,P388,1 µg/mL
CC1(C)[C@H](OC(=O)/C=C/c2ccc(O)c(O)c2)CC[C@]2(C)[C@H]3C4C[C@@]12C[C@]43C,IC50,[4],7.5 µg/mL
COC(=O)[C@@]12Cc3occc3C(=O)[C@]1(C)CC[C@H]2C [NORPINGUISONE METHYL ESTER],IC50,RAW264.7 [1],45.5 µM
same,IC50,[4],35 µg/mL
C/C1=C\[C@@H]2[C@H](CC/C(C)=C/CC1)C2(C)C=O (stereo partly specified),IC50,[4],12.5 µg/mL
O=C(N[C@H](CO)[C@H](O)c1ccc([N+](=O)[O-])cc1)C(Cl)Cl [CHLORAMPHENICOL],diameter of the inhibition zone (DIZ),Staphylococcus aureus,22 mm
C=C1C(=O)[C@H]2C[C@@H]1CC1=C2[C@@]2(C)[C@H](CC1)C(C)(C)CC[C@@H]2O,IC50,HL-60,0.28 µM
Oc1ccc2c(c1)CCc1ccc(cc1)Oc1cc(cc(-c3cc4c(cc3O)CCc3ccc(cc3)Oc3cc(ccc3O)CCc3ccc-4c(O)c3)c1O)CCc1ccc-2c(O)c1,IC50,DNA polymerase beta,5.16 µM
C=C1C(=O)O[C@H]2C[C@@]3(C)CCC=C(C)[C@@H]3C[C@@H]12,IC50,HL-60,1.4 µg/mL
same,IC50,KB,3.3 µg/mL
C=C1C(=O)[C@@]23CC[C@@H]4C(C)(C)CC[C@H](O)[C@@]4(C)C2=CC[C@@H]1C3,IC50,HL-60,7 µM
C=C[C@@]1(O)CC(=O)[C@@]2(C(=O)OC)[C@H](C)CC[C@@]2(C)[C@@H]1C,IC50,HL-60,2.7 µM
CC1(C)CCC[C@]2(C)CC3=CC(=O)O[C@@]3(O)C[C@@H]12,IC50,P388,2.3 µg/mL
CC1=CCc2c(O)cc(CCc3ccccc3)cc2OC1,IC50,RAW264.7 [1],4.5 µM
same,inhibition,[3],4%
Oc1ccc2cc1Oc1ccc(cc1)CCc1c(cc(O)c(O)c1O)-c1ccc(cc1O)CC2,MID,Candida albicans,4 µg/mL
Oc1cccc(CCc2ccc(Oc3cc(CCc4cccc(O)c4)cc(O)c3O)cc2)c1 [PERROTETTIN F],IC50,DNA polymerase beta,14.4 µM
C[C@]12COc3cc(CCc4ccccc4)c(C(=O)O)c(O)c3[C@H]1C2,IC50,[4],6 µg/mL
C=C1C(=O)[C@]23C[C@H]1CC[C@H]2[C@]1(C)CCCC(C)(C)[C@H]1[C@@H](O)C3,IC50,HL-60,0.4 µM
C[C@@H]1CC[C@H]2C(=O)c3ccoc3C[C@@]12C,IC50,RAW264.7 [1],1.7 µM
same,IC50,[4],12.5 µg/mL
CC(C)=CCC/C(C)=C/Cc1c(O)cc(O)cc1CCc1ccccc1,IC50,RAW264.7 [1],4.5 µM
Cc1ccc([C@@]2(C)CCCC2(C)C)c(O)c1O,IC50,RAW264.7 [5],4.1 µM
